Measurements published in patent US20250205200A1, “5-METHOXY-N,N-[…][…] THE TREATMENT OF […]” (GH RESEARCH IRELAND LIMITED, priority 2022, published 2025).

Test system: Escherichia coli (WP2 uvrA pKM101)
Assay: Bacterial mutation test, Escherichia coli
Type: cell-based
Conditions: up to 5000 μg/plate; absence and presence of S-9
Experimental: These conditions included treatments at concentrations up to 5000 μg/plate (the maximum recommended concentration according to current regulatory guidelines), in the absence and in the presence of a rat liver metabolic activation system (S-9).

In the case of `COc1ccc2[nH]cc(CCN(C)C)c2c1` [5-MeO-DMT], the Induction of mutation is reported as “did not induce mutation”.
